The source made the active and inactive calls. The rule behind the calls is not given here.
Columns and labels:
Micrococcus luteus = assay: Antibacterial activity against Micrococcus luteus by disc diffusion assay; assay type: functional, organism-based
Amphibalanus amphitrite = assay: Antifouling activity against Balanus amphitrite by settlement inhibition assay; assay type: functional, organism-based
[1] = Antifouling activity against Bugula neritina by settlement inhibition assay; assay type: functional
A549 = assay: Cytotoxicity against human A549 cells up to 50 uM by SRB assay; assay type: cell-based
SMMC-7721 = assay: Cytotoxicity against human SMMC7721 cells up to 50 uM by SRB assay; assay type: cell-based
HeLa = assay: Cytotoxicity against human HeLa cells up to 50 uM by SRB assay; assay type: cell-based
uncultured Ruegeria sp. = assay: Antibacterial activity against Ruegeria sp. by disc diffusion assay; assay type: functional
Laribacter hongkongensis = assay: Antibacterial activity against Laribacter hongkongensis by disc diffusion assay; assay type: functional
HepG2 = assay: Lipid lowering activity in human HepG2 cells assessed as decrease in oleic acid elicited lipid accumulation after 6 hrs by oil-red O staining method; assay type: functional, cell-based; conditions: HepG2, 6 h

## C[C@@H](O)CCCCC[C@H](O)[C@@H]1C=CC(=O)O1
Micrococcus luteus
  Activity: inactive
Amphibalanus amphitrite
  Activity: inactive
[1]
  Activity: inactive
A549
  Activity: Non-toxic
SMMC-7721
  Activity: Non-toxic
HeLa
  Activity: Non-toxic
Uncultured Ruegeria sp.
  Activity: inactive
Laribacter hongkongensis
  Activity: inactive

## C[C@@H](O)CCCCCC[C@H]1OC(=O)C[C@@H]1O
A549
  Activity: Non-toxic
SMMC-7721
  Activity: Non-toxic
HeLa
  Activity: Non-toxic

## CC[C@H](C)C(=O)O[C@H]1C[C@@H](C)C=C2C=C[C@H](C)[C@H](CC[C@@H]3C[C@@H](O)CC(=O)O3)[C@H]21 [LOVASTATIN]
HepG2
  IC50: 8.3 µM

From ChEMBL document CHEMBL3603796, “Lipid-lowering polyketides from a soft coral-derived fungus Cladosporium sp. TZP29” (Bioorg Med Chem Lett, 2015)
